Series [1] deals with T1, NLRP3 (Homo sapiens, UniProt Q96P20). The experiment in a line: THP-1 cells pyroptosis assay (LPS + nigericin, resazurin readout). Format: cell-based. Set-up: Seed THP-1 cells (25,000 cells/well) containing 1.0 μg/ml LPS in 40 μl of RPMI medium; host or cells: THP-1 cells. The conditions noted are these: NLRP3 inhibitory activity, 1.0 μg/ml LPS, 5 μM nigericin. The procedure, abridged:
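LPS-primed (1 μg/ml) THP-1 cells, 25,000/well in serum-free RPMI, given compound (8-point half-log, 10 μM top; 0.1% DMSO) for 3 h at 37 °C, then nigericin 5 μM for 1 h. Viability by resazurin (100 μM, 1-2 h), Ex 560/Em 590 nm; IC50 from 4-parameter variable-slope fit.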
For orientation: Alamar Blue is a resazurin reagent that responds to reducing activity.

Series [2] addresses T1, NLRP3. In words: Human whole blood IL1β release assay (LPS + nigericin, AlphaLisa IL-1β). Format: cell-based. Set-up: Human whole blood in Li-heparin tubes was obtained from healthy donors from a volunteer donor panel; from tissue; host or cells: human whole blood from healthy donors. The conditions noted are these: NLRP3 inhibitory activity, 1 μg/ml LPS, 10 μM nigericin, IL-1β release, read-out: HWB IC50. In outline: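 Donor human whole blood (Li-heparin) was primed with 1 μg/mL LPS while incubated with compound (8-point half-log, 10 μM top, 0.1% DMSO) for 3 h at 37° C., then stimulated with 10 μM nigericin for 1 h. Supernatant IL-1β measured by AlphaLISA; IC50 from 4-parameter nonlinear fit.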

Series [3] can be described thus: PK protocol, oral administration. Format: in vivo, male Sprague Dawley rats. Conditions: male, Sprague Dawley, rat, plasma, dose (mg/kg); for AUC / CL/F / Cmax / Tmax / half-life: po. The procedure:
(§1) Pharmacokinetic parameters were determined in male Sprague Dawley rats (Charles River, UK, 250-350 g; or Vital River Laboratory Animal Technology Co Ltd, Beijing, China, 7-9 weeks old). Animals were individually housed during the study and maintained under a 12 h light/dark cycle. Animals had free access to food and water except that some orally dosed animals were food deprived overnight prior to the study.
(§2) For intravenous administration, compounds were formulated as a solution in water or […] in 2 mL/kg dosing volume and administered via tail vein. For oral administration, compounds were formulated as a solution in water or DMSO:water [10:90] in 5 mL/kg dosing volume and administered orally.
(§3) Serial blood samples (about 120-300 μL) were taken from each animal at each of 8 time-points post dose (0.083, 0.25, 0.5, 1, 2, 4, 8 and 24 h) or at each of 12 time-points post dose (0.03, 0.1, 0.17, 0.25, 0.5, 1, 2, 4, 6, 8, 12 and 24 h) or pre-dose and at each of 9 time-points post dose (0.25, 0.5, 1, 2, 4, 6, 8, 12 and 24 h). Samples were held on ice for no longer than 30 minutes before centrifugation (10,000 rpm (8,385 g) for 3 minutes; or 5,696 rpm (3,0009 for 15 minutes) for plasma generation. Plasma was frozen on dry ice prior to boanalysis. PK parameters were generated from LC-MS/MS data using Dotmatics or Phoenix WinNonlin 6.3 software.

Series [4] is described as follows: PK protocol, intravenous administration. Format: in vivo, male Sprague Dawley rats. The conditions noted are these: male, Sprague Dawley, rat, plasma, dose (mg/kg); for Vd: read-out: Vdss. How it is done:
as §1, §2, §3

Structures are written as SMILES. Structures can show the parent of a compound that is named as a salt. Bounds are passed on as bounds.

The text below walks through data of patent US11542255B2, “Sulfonylureas and sulfonylthioureas as NLRP3 inhibitors” (Inflazome Limited, priority 2017, dated 2023).

T1 sequence (Q96P20 whole entry): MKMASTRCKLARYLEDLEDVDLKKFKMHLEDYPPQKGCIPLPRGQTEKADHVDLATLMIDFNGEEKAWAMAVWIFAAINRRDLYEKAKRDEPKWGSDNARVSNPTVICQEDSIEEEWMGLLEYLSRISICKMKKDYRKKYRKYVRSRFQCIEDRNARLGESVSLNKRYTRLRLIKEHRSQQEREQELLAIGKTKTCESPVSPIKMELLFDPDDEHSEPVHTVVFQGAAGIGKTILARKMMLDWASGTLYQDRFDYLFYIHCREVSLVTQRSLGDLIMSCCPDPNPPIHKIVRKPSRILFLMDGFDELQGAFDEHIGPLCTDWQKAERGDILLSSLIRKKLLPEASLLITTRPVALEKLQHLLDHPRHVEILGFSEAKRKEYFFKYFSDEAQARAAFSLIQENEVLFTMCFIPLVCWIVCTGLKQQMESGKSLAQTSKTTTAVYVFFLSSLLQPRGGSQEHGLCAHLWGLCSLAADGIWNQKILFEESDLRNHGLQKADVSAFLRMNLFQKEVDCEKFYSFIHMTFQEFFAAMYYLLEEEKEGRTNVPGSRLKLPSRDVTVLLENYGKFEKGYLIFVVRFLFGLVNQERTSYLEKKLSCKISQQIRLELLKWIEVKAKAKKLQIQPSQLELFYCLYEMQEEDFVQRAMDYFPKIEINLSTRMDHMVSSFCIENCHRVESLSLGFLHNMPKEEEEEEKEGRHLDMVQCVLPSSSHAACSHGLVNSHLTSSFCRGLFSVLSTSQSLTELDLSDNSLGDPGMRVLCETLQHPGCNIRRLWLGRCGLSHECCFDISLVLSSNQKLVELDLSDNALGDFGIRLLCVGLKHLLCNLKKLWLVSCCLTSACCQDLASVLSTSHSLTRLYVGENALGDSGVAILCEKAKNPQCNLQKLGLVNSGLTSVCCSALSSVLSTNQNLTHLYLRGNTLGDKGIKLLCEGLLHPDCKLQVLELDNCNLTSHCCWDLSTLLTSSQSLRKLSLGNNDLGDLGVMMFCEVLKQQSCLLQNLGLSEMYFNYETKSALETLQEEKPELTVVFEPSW

Take `CC(c1cc(S(=O)(=O)NC(=O)Nc2c3c(cc4c2CCC4)CCC3)nn1C)N(C)C` (single isomer, unassigned; enantiomer 1) [Example 69, 5-(1-(Dimethylamino)ethyl)-N-((1,2,3,5,6,7-hexahydro-s-indacen-4-yl)carbamoyl)-1-methyl-1H-pyrazole-3-sulfonamide, Enantiomer 1]: at NLRP3 [1], the IC50 was below 40 nM. Further, the IC50 on NLRP3 [2] is below 400 nM. In series [3], the AUC stood at 17000 ng·h/mL, the CL/F stood at 4.2 mL/min/kg, the Cmax was 7460 ng/mL and the Tmax was 0.38 h. For the same compound, in series [3], the half-life was 1.2 h.

In the case of `CN(C)Cc1cc(S(=O)(=O)NC(=O)Nc2c3c(cc4c2CCC4)CCC3)nn1C1CC1` [Example 7, 1-Cyclopropyl-5-((dimethylamino)methyl)-N-((1,2,3,5,6,7-hexahydro-s-indacen-4-yl)carbamoyl)-1H-pyrazole-3-sulfonamide], the IC50 at NLRP3 [1] was below 40 nM. The IC50 at NLRP3 [2] lay within 400 to 800 nM. In series [4], the AUC came to 3480 ng·h/mL, the clearance stood at 4.9 mL/min/kg, the half-life was 1.2 h and the Vd worked out at 0.36 L/kg. In series [3], the bioavailability stood at 204%, the AUC stood at 21200 ng·h/mL, the CL/F came to 2.4 mL/min/kg and the Cmax was 6690 ng/mL. Moreover, in series [3], the Tmax came out at 1 h and the half-life is 2.2 h.

Turning to `CNCc1cc(S(=O)(=O)NC(=O)Nc2c3c(cc4c2CCC4)CCC3)nn1C(C)C` [Example 50, N-((1,2,3,5,6,7-Hexahydro-s-indacen-4-yl)carbamoyl)-1-isopropyl-5-((methylamino)methyl)-1H-pyrazole-3-sulfonamide], on NLRP3 [1], the IC50 lay in the range of 40 to 160 nM. In addition, the IC50 at NLRP3 [2] is 400 to 800 nM. For the same compound, in series [4], the AUC is 11400 ng·h/mL, the clearance amounted to 1.5 mL/min/kg, the half-life was 3.5 h and the Vd was 0.39 L/kg. In addition, in series [3], the bioavailability came out at 84%, the AUC stood at 19100 ng·h/mL, the apparent clearance (CL/F) is 1.8 mL/min/kg and the Cmax was found to be 2410 ng/mL. Besides, in series [3], the Tmax was 1.3 h and the half-life was 3.3 h.

Take `CC(c1cc(S(=O)(=O)NC(=O)Nc2c3c(cc4c2CCC4)CCC3)nn1C)N1CCC1` (stereo not drawn) [Example 76, 5-(1-(Azetidin-1-yl)ethyl)-N-((1,2,3,5,6,7-hexahydro-s-indacen-4-yl)carbamoyl)-1-methyl-1H-pyrazole-3-sulfonamide]: on NLRP3 [1], the IC50 was 40 to 160 nM. In addition, at NLRP3 [2], the IC50 is below 400 nM. Further, in series [4], the AUC was 4900 ng·h/mL, the clearance stood at 5.8 mL/min/kg, the half-life is 3.2 h and the Vd worked out at 0.66 L/kg. For the same compound, in series [3], the bioavailability was found to be 45.6%, the AUC stood at 5650 ng·h/mL, the CL/F stood at 12.3 mL/min/kg and the concentration peaked (Cmax) at 2340 ng/mL. In addition, in series [3], the Tmax is 0.5 h and the half-life was 2.9 h.

`CC(C)c1cc(F)cc(C(C)C)c1NC(=O)NS(=O)(=O)c1cc(CN2CCC2)n(C)n1` [Example 88, 5-(Azetidin-1-ylmethyl)-N-((4-fluoro-2,6-diisopropylphenyl)carbamoyl)-1-methyl-1H-pyrazole-3-sulfonamide, Sodium Salt]: the IC50 at NLRP3 [1] was in the range of 160 to 640 nM. Moreover, at NLRP3 [2], the IC50 is below 400 nM. Also, in series [4], the AUC amounted to 1500 ng·h/mL, the clearance is 11.2 mL/min/kg, the half-life is 4.3 h and the Vd was 1.64 L/kg.

With `CCN(C)Cc1cc(S(=O)(=O)NC(=O)Nc2c(C(C)C)cc(F)cc2C(C)C)nn1C` [Example 89, 5-((Ethyl(methyl)amino)methyl)-N-((4-fluoro-2,6-diisopropylphenyl)carbamoyl)-1-methyl-1H-pyrazole-3-sulfonamide, sodium Salt], the IC50 on NLRP3 [1] was 160 to 640 nM. Also, the IC50 at NLRP3 [2] was below 400 nM. In addition, in series [4], the AUC came to 1020 ng·h/mL, the clearance was 16.3 mL/min/kg, the half-life is 1.4 h and the Vd was 1.4 L/kg.

Consider `CC(C)N(C)Cc1cc(S(=O)(=O)NC(=O)Nc2c3c(cc4c2CCC4)CCC3)nn1C` [Example 91, N-((1,2,3,5,6,7-Hexahydro-s-indacen-4-yl)carbamoyl)-5-((isopropyl(methyl)amino)methyl)-1-methyl-1H-pyrazole-3-sulfonamide], for which the IC50 at NLRP3 [1] lay within 160 to 640 nM. For the same compound, on NLRP3 [2], the IC50 was 400 to 800 nM. For the same compound, in series [4], the AUC is 2620 ng·h/mL, the clearance was 6.9 mL/min/kg, the half-life was 4.3 h and the Vd turned out to be 1.03 L/kg.

For the compound `CC(C)c1cc(F)cc(C(C)C)c1NC(=O)NS(=O)(=O)c1cc(CN(C)C)n(C)n1` [Example 92, 5-((Dimethylamino)methyl)-N-((4-fluoro-2,6-diisopropyl-phenyl)carbamoyl)-1-methyl-1H-pyrazole-3-sulfonamide, Sodium Salt], the 50% inhibitory concentration (IC50) at NLRP3 [1] is 160 to 640 nM. Further, the half-inhibitory concentration (IC50) at NLRP3 [2] was below 400 nM. Further, in series [4], the AUC amounted to 1280 ng·h/mL, the clearance was 13.1 mL/min/kg, the half-life was 3.2 h and the Vd was 2.19 L/kg.

`CC(C)c1cc(Cl)cc(C(C)C)c1NC(=O)NS(=O)(=O)c1cc(CN(C)C)n(C)n1` [Example 93, N-((4-Chloro-2,6-diisopropylphenyl)carbamoyl)-5-((dimethylamino)methyl)-1-methyl-1H-pyrazole-3-sulfonamide, Sodium Salt]: the IC50 at NLRP3 [1] lay in the range of 40 to 160 nM. Also, the concentration for half-maximal inhibition (IC50) on NLRP3 [2] was 800 to 1600 nM. Further, in series [4], the AUC stood at 4230 ng·h/mL, the clearance worked out at 10.8 mL/min/kg, the half-life was 3.3 h and the Vd stood at 1.71 L/kg. In addition, in series [3], the bioavailability came out at 31.3%, the AUC was found to be 3310 ng·h/mL, the CL/F came out at 18 mL/min/kg and the Cmax was determined as 1100 ng/mL. For the same compound, the Tmax in series [3] came to 0.36 h.

Turning to `CN(C)Cc1cc(S(=O)(=O)NC(=O)Nc2c3c(cc4c2CCC4)CCC3)nn1C` [Example 94, 5-((Dimethylamino)methyl)-N-((1,2,3,5,6,7-hexahydro-s-indacen-4-yl)carbamoyl)-1-methyl-1H-pyrazole-3-sulfonamide], the IC50 at NLRP3 [1] was below 40 nM. The IC50 at NLRP3 [2] was below 400 nM. In series [4], the AUC was 4700 ng·h/mL, the clearance stood at 3.8 mL/min/kg, the half-life was 1.1 h and the Vd is 0.27 L/kg. Besides, in series [3], the bioavailability came to 91.6%, the AUC amounted to 12900 ng·h/mL, the apparent clearance (CL/F) is 4.1 mL/min/kg and the Cmax stood at 7180 ng/mL. Further, in series [3], the Tmax was 0.58 h and the half-life was 1.5 h.

The term IC50 denotes the midpoint of a concentration-inhibition curve. As a reminder, the AUC is concentration integrated over time. Low readings indicate less exposure, high ones more exposure. By CL/F is commonly meant the apparent clearance, not corrected for the fraction that reaches the circulation. By Cmax is commonly meant the highest concentration seen after dosing. What is called Tmax is the time at which the peak concentration occurs. The term half-life denotes how long it takes for the measured level to halve. Read a high half-life as slow decline. Broadly, the clearance is a measure of how efficiently the substance is removed, as volume per time.
